# Measured values reported in ChEMBL document CHEMBL1157545, “Synthesis and cancer cell cytotoxicity of substituted xanthenes” (Bioorg Med Chem, 2010).
# Activity calls are given as the source filed them. The rule behind the calls is not given here.
# Key:
# Nucleic Acid [1] = assay: Binding affinity to DNA assessed as DNA intercalation at 250 uM; type: nucleic-acid assay
# MCF7 = assay: Cytotoxicity against human MCF7 cells after 48 hrs; type: functional, cell-based; conditions: MCF7, 48 h
# Nucleic Acid [2] = assay: Binding affinity to DNA assessed as DNA intercalation at 50 uM; type: nucleic-acid assay
# HeLa = assay: Cytotoxicity against human HeLa cells after 48 hrs; type: functional, cell-based
# DU-145 = assay: Cytotoxicity against human DU145 cells after 48 hrs; type: functional, cell-based; conditions: DU-145, 48 h
# [3] = biological target: DNA topoisomerase 2-alpha (Homo sapiens) (UniProt P11388); assay: Inhibition of human DNA topoisomerase 2 at 50 uM by DNA relaxation assay
# DNA topoisomerase 2-alpha (Homo sapiens), sequence (P11388 whole entry): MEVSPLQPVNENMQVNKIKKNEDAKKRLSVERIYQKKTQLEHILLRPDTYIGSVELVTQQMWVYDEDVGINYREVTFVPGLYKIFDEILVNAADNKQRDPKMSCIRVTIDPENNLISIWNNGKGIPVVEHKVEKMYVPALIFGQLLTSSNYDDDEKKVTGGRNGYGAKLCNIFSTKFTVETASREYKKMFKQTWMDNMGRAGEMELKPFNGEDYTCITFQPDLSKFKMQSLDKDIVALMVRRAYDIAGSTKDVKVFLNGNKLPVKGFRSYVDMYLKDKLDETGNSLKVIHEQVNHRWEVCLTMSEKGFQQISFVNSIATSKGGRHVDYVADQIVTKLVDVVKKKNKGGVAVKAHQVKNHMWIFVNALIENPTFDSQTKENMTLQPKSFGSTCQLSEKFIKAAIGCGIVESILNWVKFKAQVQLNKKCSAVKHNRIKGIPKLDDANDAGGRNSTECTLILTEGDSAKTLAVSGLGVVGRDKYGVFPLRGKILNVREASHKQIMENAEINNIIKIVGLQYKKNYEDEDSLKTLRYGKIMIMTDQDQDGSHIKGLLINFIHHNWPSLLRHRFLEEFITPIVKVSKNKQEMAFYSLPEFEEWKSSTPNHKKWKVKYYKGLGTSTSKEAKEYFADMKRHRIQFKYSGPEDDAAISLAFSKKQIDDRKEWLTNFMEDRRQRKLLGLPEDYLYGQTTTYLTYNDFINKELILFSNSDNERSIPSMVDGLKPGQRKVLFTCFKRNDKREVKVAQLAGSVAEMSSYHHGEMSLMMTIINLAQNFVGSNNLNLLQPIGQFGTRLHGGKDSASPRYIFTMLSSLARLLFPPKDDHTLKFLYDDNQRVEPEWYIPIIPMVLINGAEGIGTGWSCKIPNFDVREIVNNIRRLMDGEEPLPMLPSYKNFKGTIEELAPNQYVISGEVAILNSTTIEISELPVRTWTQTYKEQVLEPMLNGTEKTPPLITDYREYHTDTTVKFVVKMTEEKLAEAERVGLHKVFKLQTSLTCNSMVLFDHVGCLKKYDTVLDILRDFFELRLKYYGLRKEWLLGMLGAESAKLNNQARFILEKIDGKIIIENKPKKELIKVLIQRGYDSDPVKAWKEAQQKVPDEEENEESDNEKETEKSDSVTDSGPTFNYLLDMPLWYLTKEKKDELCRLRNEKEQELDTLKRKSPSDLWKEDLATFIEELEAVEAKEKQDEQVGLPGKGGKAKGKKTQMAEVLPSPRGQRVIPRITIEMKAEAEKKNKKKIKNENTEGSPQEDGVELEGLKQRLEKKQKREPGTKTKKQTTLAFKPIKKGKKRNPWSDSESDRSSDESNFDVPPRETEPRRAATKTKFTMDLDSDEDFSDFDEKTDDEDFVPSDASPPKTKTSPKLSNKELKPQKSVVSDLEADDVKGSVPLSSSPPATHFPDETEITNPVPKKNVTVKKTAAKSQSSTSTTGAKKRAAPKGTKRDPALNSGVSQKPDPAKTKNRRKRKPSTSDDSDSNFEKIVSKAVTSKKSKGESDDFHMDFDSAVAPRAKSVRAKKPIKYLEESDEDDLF
# [4] = biological target: DNA topoisomerase 2-alpha (Homo sapiens) (UniProt P11388); assay: Inhibition of human DNA topoisomerase 2 at 250 uM by DNA relaxation assay
Activity (Nucleic Acid [1]),Activity (Nucleic Acid [2]),inhibition [3],inhibition [4],Compound,IC50 (MCF7) [µM],IC50 (HeLa) [µM],IC50 (DU-145) [µM]
inactive,inactive,,,COc1cccc(C2(O)c3ccccc3Oc3cc(C(=O)N4CCN(C)CC4)ccc32)c1 (configuration not stated),125,111,139
inactive,inactive,inactive,inactive,CN1CCN(C(=O)c2ccc3c(c2)Oc2ccc(F)cc2C3(O)c2ccccc2)CC1 (configuration not stated),62,109,84
inactive,inactive,,,OC1(c2ccccc2)c2ccccc2Oc2ccccc21,> 500,> 500,> 500
inactive,inactive,inactive,inactive,COc1cccc(C2(O)c3ccccc3Oc3ccccc32)c1,82,85,59
inactive,inactive,,,CN1CCN(C(=O)c2ccc3c(c2)Oc2ccc(Cl)cc2C3(O)c2ccccc2)CC1 (configuration not stated),95,158,117
inactive,inactive,inactive,inactive,COc1cccc(C2(O)c3ccccc3Oc3cc(C(=O)N(C)C)ccc32)c1 (configuration not stated),50,44,36
inactive,inactive,,,CN1CCN(C(=O)c2ccc3c(c2)Oc2ccccc2C3(O)c2ccccc2)CC1 (configuration not stated),169,170,> 300
inactive,inactive,,,COc1cccc(C2(O)c3ccccc3Oc3cc(C(=O)N4CCOCC4)ccc32)c1 (configuration not stated),151,153,163
inactive,inactive,,,O=C(c1ccc2c(c1)Oc1ccccc1C2(O)c1ccccc1)N1CCOCC1 (configuration not stated),134,120,125
inactive,inactive,inactive,inactive,CN(C)C(=O)c1ccc2c(c1)Oc1ccccc1C2(O)c1ccccc1 (configuration not stated),62,67,59
inactive,inactive,,,CN1CCN(C(=O)c2ccc3c(c2)Oc2ccccc2C3(C)O)CC1 (configuration not stated),115,121,119

# Further lines, the compound ahead of its results:
Compound,Activity (Nucleic Acid [1]),Activity (Nucleic Acid [2]),inhibition [3],inhibition [4],IC50 (MCF7) [µM],IC50 (HeLa) [µM],IC50 (DU-145) [µM]
C=CC1(O)c2ccccc2Oc2cc(C(=O)N3CCN(C)CC3)ccc21 (configuration not stated),inactive,inactive,,,74,74,63
COc1cccc(C2(O)c3ccc(C(=O)N4CCN(C)CC4)cc3Oc3ccc(F)cc32)c1 (configuration not stated),inactive,inactive,inactive,inactive,46,85,55
C=CC1(O)c2ccc(C(=O)N3CCN(C)CC3)cc2Oc2ccc(Cl)cc21 (configuration not stated),inactive,inactive,,,> 500,285,208
CN1CCN(C(=O)c2ccc3c(c2)Oc2ccc(Cl)cc2C3(C)O)CC1 (configuration not stated),inactive,inactive,,,160,264,241
COc1cccc(C2(O)c3ccc(C(=O)N4CCN(C)CC4)cc3Oc3ccc(Cl)cc32)c1 (configuration not stated),inactive,inactive,,,72,94,92
CCC1(O)c2ccc(C(=O)N3CCN(C)CC3)cc2Oc2ccc(F)cc21 (configuration not stated),inactive,inactive,,,138,127,139
CCC1(O)c2ccccc2Oc2cc(C(=O)N3CCN(C)CC3)ccc21 (configuration not stated),inactive,inactive,,,218,213,195
CCC1(O)c2ccc(C(=O)N3CCN(C)CC3)cc2Oc2ccc(Cl)cc21 (configuration not stated),inactive,inactive,,,180,153,145
O=c1c2ccccc2oc2ccccc12 [XANTHONE],inactive,inactive,,,> 500,> 500,> 500
CN1CCN(C(=O)c2ccc3c(c2)Oc2ccc(F)cc2C3(C)O)CC1 (configuration not stated),inactive,inactive,,,208,> 300,> 300
C=CC1(O)c2ccc(C(=O)N3CCN(C)CC3)cc2Oc2ccc(F)cc21 (configuration not stated),inactive,inactive,inactive,inactive,254,230,> 300
